In patent publication US11053204B2, “Pyrimidinyloxy benzene derivatives as herbicides” (FMC Corporation, priority 2015, dated 2021):

Experiments:
Assay type in all cases: in vivo
[1] = system: Italian ryegrass (Lolium multiflorum); experiment: Test A preemergence, visual injury rating; settings: 0 to 100 scale (0 no effect, 100 complete control)
Source text: (§1) Seeds of plant species selected from barnyardgrass (Echinochloa crus-galli), kochia (Kochia scoparia), ragweed (common ragweed, Ambrosia elatior), Italian ryegrass (Lolium multiflorum), large (Lg) crabgrass (Digitaria sanguinalis), giant foxtail (Setaria faberii), morningglory (Ipomoea spp.), pigweed (Amaranthus retroflexus), velvetleaf (Abutilon theophrasti), wheat (Triticum aestivum), and corn (Zea mays) were planted into a blend of loam soil and sand and treated preemergence with a directed soil spray using test chemicals formulated in a non-phytotoxic solvent mixture which included a surfactant.
(§2) At the same time, plants selected from these crop and weed species and also blackgrass (Alopecurus myosuroides), and galium (catchweed bedstraw, Galium aparine) were planted in pots containing the same blend of loam soil and sand and treated with postemergence applications of test chemicals formulated in the same manner. Plants ranged in height from 2 to 10 cm and were in the one- to two-leaf stage for the postemergence treatment. Treated plants and untreated controls were maintained in a greenhouse for approximately 10 days, after which time all treated plants were compared to untreated controls and visually evaluated for injury. Plant response ratings, summarized in Table A, are based on a 0 to 100 scale where 0 is no effect and 100 is complete control. A dash (-) response means no test result.

[2] = system: barnyardgrass (Echinochloa crus-galli); experiment: Test A preemergence, visual injury rating; settings: 0 to 100 scale (0 no effect, 100 complete control)
Source text: as §1, §2

[3] = system: giant foxtail (Setaria faberii); experiment: Test A preemergence, visual injury rating; settings: 0 to 100 scale (0 no effect, 100 complete control)
Source text: as §1, §2

kochia (Kochia scoparia) [4] = experiment: Test A preemergence, visual injury rating; settings: 0 to 100 scale (0 no effect, 100 complete control)
Source text: as §1, §2

[5] = system: pigweed (Amaranthus retroflexus); experiment: Test A preemergence, visual injury rating; settings: 0 to 100 scale (0 no effect, 100 complete control)
Source text: as §1, §2

[6] = system: ragweed (common ragweed, Ambrosia elatior); experiment: Test A preemergence, visual injury rating; settings: 0 to 100 scale (0 no effect, 100 complete control)
Source text: as §1, §2

[7] = system: Italian ryegrass (Lolium multiflorum); experiment: Test A postemergence, visual injury rating; settings: 0 is no effect, 100 is complete control
Source text: as §1, §2

[8] = system: barnyardgrass (Echinochloa crus-galli); experiment: Test A postemergence, visual injury rating; settings: 0 is no effect, 100 is complete control
Source text: as §1, §2

[9] = system: blackgrass (Alopecurus myosuroides); experiment: Test A postemergence, visual injury rating; settings: 0 is no effect, 100 is complete control
Source text: as §1, §2

corn (Zea mays) = experiment: Test A postemergence, visual injury rating; settings: 0 is no effect, 100 is complete control
Source text: as §1, §2

[10] = system: galium (catchweed bedstraw, Galium aparine); experiment: Test A postemergence, visual injury rating; settings: 0 is no effect, 100 is complete control
Source text: as §1, §2

[11] = system: giant foxtail (Setaria faberii); experiment: Test A postemergence, visual injury rating; settings: 0 is no effect, 100 is complete control
Source text: as §1, §2

kochia (Kochia scoparia) [12] = experiment: Test A postemergence, visual injury rating; settings: 0 is no effect, 100 is complete control
Source text: as §1, §2

[13] = system: pigweed (Amaranthus retroflexus); experiment: Test A postemergence, visual injury rating; settings: 0 is no effect, 100 is complete control
Source text: as §1, §2

[14] = system: ragweed (common ragweed, Ambrosia elatior); experiment: Test A postemergence, visual injury rating; settings: 0 is no effect, 100 is complete control
Source text: as §1, §2

[15] = system: wheat (Triticum aestivum); experiment: Test A postemergence, visual injury rating; settings: 0 is no effect, 100 is complete control
Source text: as §1, §2

[16] = system: barnyardgrass (Echinochloa crus-galli); experiment: Test B flooded paddy test, plant response rating; settings: 250 g ai/ha; Flood; scale of 0 to 100 where 0 is no effect and 100 is complete control; 13 to 15 days
Source text: (§3) At time of treatment, test pots were flooded to 3 cm above the soil surface, treated by application of test compounds directly to the paddy water, and then maintained at that water depth for the duration of the test. Treated plants and controls were maintained in a greenhouse for 13 to 15 days, after which time all species were compared to controls and visually evaluated. […] A dash (-) response means no test result.

[17] = system: ducksalad (Heteranthera limosa); experiment: Test B flooded paddy test, plant response rating; settings: 250 g ai/ha; Flood; scale of 0 to 100 where 0 is no effect and 100 is complete control; 13 to 15 days
Source text: as §3

rice (Oryza sativa) = experiment: Test B flooded paddy test, plant response rating; settings: 250 g ai/ha; Flood; scale of 0 to 100 where 0 is no effect and 100 is complete control; 13 to 15 days
Source text: as §3

[18] = system: sedge, umbrella (small-flower umbrella sedge, Cyperus difformis); experiment: Test B flooded paddy test, plant response rating; settings: 250 g ai/ha; Flood; scale of 0 to 100 where 0 is no effect and 100 is complete control; 13 to 15 days
Source text: as §3

[19] = 125 g ai/ha, 0 to 100 scale, approximately 10 days

SMILES	Ryegrass, Italian plant response rating ([1]; 125 g ai/ha)	Ryegrass, Italian plant response rating ([1]; 500 g ai/ha)	Barnyardgrass plant response rating ([2]; 125 g ai/ha)	Barnyardgrass plant response rating ([2]; 500 g ai/ha)	Foxtail, Giant plant response rating ([3]; 125 g ai/ha)	Foxtail, Giant plant response rating ([3]; 500 g ai/ha)	Kochia plant response rating (kochia (Kochia scoparia) [4]; 125 g ai/ha)	Kochia plant response rating (kochia (Kochia scoparia) [4]; 500 g ai/ha)	Pigweed plant response rating ([5]; 125 g ai/ha)	Pigweed plant response rating ([5]; 500 g ai/ha)	Ragweed plant response rating ([6]; 500 g ai/ha)	Ryegrass, Italian plant response rating (0 to 100 scale) ([7]; 500 g ai/ha)	Barnyardgrass plant response rating (0 to 100 scale) ([8]; 500 g ai/ha)	Blackgrass plant response rating (0 to 100 scale) ([9]; 500 g ai/ha)	Corn plant response rating (0 to 100 scale) (corn (Zea mays); 500 g ai/ha)	Galium plant response rating (0 to 100 scale) ([10]; 500 g ai/ha)	Foxtail, Giant plant response rating (0 to 100 scale) ([11]; 500 g ai/ha)	Pigweed plant response rating (0 to 100 scale) ([13]; 500 g ai/ha)	Ragweed plant response rating (0 to 100 scale) ([14]; 500 g ai/ha)	Wheat plant response rating (0 to 100 scale) ([15]; 500 g ai/ha)	also measured
O=C(OCCC(F)(F)F)c1c(F)cccc1Oc1ncc(Cl)cn1 [Compound 42]	0	0	0	0	0	0	0	0	0	30	0	0	0	0	30	0	0	90	0	0	Ragweed plant response rating ([6]; 125 g ai/ha): 0; Ryegrass, Italian plant response rating (0 to 100 scale) ([7]; 125 g ai/ha): 0; Barnyardgrass plant response rating (0 to 100 scale) ([8]; 125 g ai/ha): 0; Blackgrass plant response rating (0 to 100 scale) ([9]; 125 g ai/ha): 0; Corn plant response rating (0 to 100 scale) (corn (Zea mays); 125 g ai/ha): 20; Galium plant response rating (0 to 100 scale) ([10]; 125 g ai/ha): 0; Foxtail, Giant plant response rating (0 to 100 scale) ([11]; 125 g ai/ha): 0; Kochia plant response rating (0 to 100 scale) (kochia (Kochia scoparia) [12]; 125 g ai/ha): 30; Kochia plant response rating (0 to 100 scale) (kochia (Kochia scoparia) [12]; 500 g ai/ha): 60; Pigweed plant response rating (0 to 100 scale) ([13]; 125 g ai/ha): 80; Ragweed plant response rating (0 to 100 scale) ([14]; 125 g ai/ha): 0; Wheat plant response rating (0 to 100 scale) ([15]; 125 g ai/ha): 0
O=C(OCCCC(F)(F)F)c1c(Oc2ncc(Cl)cn2)cccc1C(F)(F)F [Compound 65]	10	30	30	100	100	100	60	90	100	100	80	0	70	40	20	70	90	100	30	0	Ragweed plant response rating ([6]; 125 g ai/ha): 0; Ryegrass, Italian plant response rating (0 to 100 scale) ([7]; 125 g ai/ha): 0; Barnyardgrass plant response rating (0 to 100 scale) ([8]; 125 g ai/ha): 30; Blackgrass plant response rating (0 to 100 scale) ([9]; 125 g ai/ha): 20; Corn plant response rating (0 to 100 scale) (corn (Zea mays); 125 g ai/ha): 10; Galium plant response rating (0 to 100 scale) ([10]; 125 g ai/ha): 20; Foxtail, Giant plant response rating (0 to 100 scale) ([11]; 125 g ai/ha): 40; Pigweed plant response rating (0 to 100 scale) ([13]; 125 g ai/ha): 90; Ragweed plant response rating (0 to 100 scale) ([14]; 125 g ai/ha): 10; Wheat plant response rating (0 to 100 scale) ([15]; 125 g ai/ha): 0; Plant response rating, Barnyardgrass [16]: 0; Plant response rating, Ducksalad [17]: 70; Plant response rating, Rice (rice (Oryza sativa)): 0; Plant response rating, Sedge, Umbrella [18]: 85
CCOCc1c(Br)cccc1Oc1ncc(Cl)cn1 [Compound 106]		10	0	100		100		90		70	0	0	100	20	10	10	70	20	0	0	Plant response rating, Ryegrass, Italian ([1]; 125 g ai/ha): 0; Plant response rating, Foxtail, Giant ([3]; 125 g ai/ha): 80; Plant response rating, Kochia (kochia (Kochia scoparia) [4]; 125 g ai/ha): 30; Plant response rating, Pigweed ([5]; 125 g ai/ha): 30; Plant response rating, Ragweed ([6]; 125 g ai/ha): 0; Ryegrass, Italian plant response rating [7, 19]: 0; Barnyardgrass plant response rating [8, 19]: 40; Blackgrass plant response rating [9, 19]: 0; Corn plant response rating (corn (Zea mays); [19]): 0; Galium plant response rating [10, 19]: 0; Foxtail, Giant plant response rating [11, 19]: 10; Pigweed plant response rating [13, 19]: 10; Ragweed plant response rating [14, 19]: 0; Wheat plant response rating [15, 19]: 0; Plant response rating, Barnyardgrass [16]: 0; Plant response rating, Ducksalad [17]: 0; Plant response rating, Rice (rice (Oryza sativa)): 0; Plant response rating, Sedge, Umbrella [18]: 0
